These results are taken from BindingDB's records for doi:10.1016/j.ejmech.2021.113336 (Zhejiang University, 2021).

Molecules are shown by their SMILES.

The nature of the series: Inhibition of P-glycoprotein in human MCF7/ADR cells assessed as reversal fold by measuring reduction in doxorubicin IC50 at 5 uM incubated for 48 hrs by CCK-8 assay. Background: Formazan colour is commonly taken as a measure of viable cells.
For `COc1ccc(-c2ccc(C(=O)N3CCc4cc(OC)c(OC)cc4C3)o2)cc1`, the IC50 stood at 9.1 µM.
As for `COc1cccc(-c2ccc(C(=O)N3CCc4cc(OC)c(OC)cc4C3)o2)c1`, the IC50 was determined as 6.7 µM.
`COc1cc2c(cc1OC)CN(C(=O)c1ccc(-c3ccccc3OC)o1)CC2`: the IC50 was 13.5 µM.
Turning to `COc1ccc(-c2ccc(C(=O)N3CCc4cc(OC)c(OC)cc4C3)o2)cc1OC`, the half-maximal inhibitory concentration (IC50) came to 9.7 µM.
On to `COc1cc(OC)cc(-c2ccc(C(=O)N3CCc4cc(OC)c(OC)cc4C3)o2)c1`, for which the IC50 was 19.8 µM.
Take `COc1cc2c(cc1OC)CN(C(=O)c1ccc(-c3cc(OC)c(OC)c(OC)c3)o1)CC2`: the IC50 was determined as 18.2 µM.
The result for `COc1cc2c(cc1OC)CN(C(=O)c1ccc(-c3cccc(OC)c3OC)o1)CC2` reads 15.1 µM; that for `COc1ccc(-c2ccc(C(=O)N3CCc4cc(OC)c(OC)cc4C3)o2)c(OC)c1`, 18.3 µM; that for `COc1ccc(OC)c(-c2ccc(C(=O)N3CCc4cc(OC)c(OC)cc4C3)o2)c1`, 18.8 µM.
Regarding `CCOc1ccc(-c2ccc(C(=O)N3CCc4cc(OC)c(OC)cc4C3)o2)cc1`, the IC50 was 15.4 µM.
On to `CCCOc1ccc(-c2ccc(C(=O)N3CCc4cc(OC)c(OC)cc4C3)o2)cc1`, for which the IC50 stood at 44.6 µM.
As to `COc1cc2c(cc1OC)CN(C(=O)c1ccc(-c3ccc(OC(C)C)cc3)o1)CC2`, the IC50 was determined as 69.6 µM.
For the molecule `CCCCOc1ccc(-c2ccc(C(=O)N3CCc4cc(OC)c(OC)cc4C3)o2)cc1`, the IC50 came to 62.7 µM.
As for `COc1cc2c(cc1OC)CN(C(=O)c1ccc(-c3ccc(OCC(C)C)cc3)o1)CC2`, the IC50 came to 50.9 µM.
The result for `COc1cc2c(cc1OC)CN(C(=O)c1ccc(-c3ccc(OC(C)(C)C)cc3)o1)CC2` reads 62.7 µM.
With `COc1cc2c(cc1OC)CN(C(=O)c1ccc(-c3ccc(OC(F)(F)F)cc3)o1)CC2` the figure was 11.7 µM.
Consider `COc1cc2c(cc1OC)CN(C(=O)c1ccc(-c3ccc(Oc4ccccc4)cc3)o1)CC2`, for which the IC50 came to 42 µM.
With `COc1cc2c(cc1OC)CN(C(=O)c1ccc(-c3ccc4c(c3)OCO4)o1)CC2` the figure was 8.4 µM; with `COc1cc2c(cc1OC)CN(C(=O)c1ccc(-c3ccc(SC(C)C)cc3)o1)CC2`, 64.4 µM.

For orientation: IC50 means the point on the concentration scale where inhibition reaches its midpoint.
